Values quoted from earlier work as cited in patent US20090036693A1, “METHOD OF PURIFYING UBIQUINONE-10” (Kyowa Hakko Kogyo Co., Ltd., priority 2005, published 2009).

Settings: solvent methanol; background statement

## COC1=C(OC)C(=O)C(C/C=C(\C)CC/C=C(\C)CC/C=C(\C)CC/C=C(\C)CC/C=C(\C)CC/C=C(\C)CC/C=C(\C)CC/C=C(\C)CC/C=C(\C)CCC=C(C)C)=C(C)C1=O [ubiquinone-10]
  solubility in methanol: ≤ 5000 µg/mL
